Results: patent publication US12187723B2 (BRISTOL-MYERS SQUIBB COMPANY, priority 2019, dated 2025)

Key:
[1] = molecular target: T1, human TLR8 (Homo sapiens, UniProt Q9NR97); experiment: TLR8 inhibition reporter assay (HEK-Blue SEAP); format: cell-based; conditions: HEK-Blue cells overexpressing human TLR8, R848 15.9 μM, 22 hour incubation
T1 construct: host or cells: HEK-Blue cells
T1 sequence (Q9NR97 27-1041): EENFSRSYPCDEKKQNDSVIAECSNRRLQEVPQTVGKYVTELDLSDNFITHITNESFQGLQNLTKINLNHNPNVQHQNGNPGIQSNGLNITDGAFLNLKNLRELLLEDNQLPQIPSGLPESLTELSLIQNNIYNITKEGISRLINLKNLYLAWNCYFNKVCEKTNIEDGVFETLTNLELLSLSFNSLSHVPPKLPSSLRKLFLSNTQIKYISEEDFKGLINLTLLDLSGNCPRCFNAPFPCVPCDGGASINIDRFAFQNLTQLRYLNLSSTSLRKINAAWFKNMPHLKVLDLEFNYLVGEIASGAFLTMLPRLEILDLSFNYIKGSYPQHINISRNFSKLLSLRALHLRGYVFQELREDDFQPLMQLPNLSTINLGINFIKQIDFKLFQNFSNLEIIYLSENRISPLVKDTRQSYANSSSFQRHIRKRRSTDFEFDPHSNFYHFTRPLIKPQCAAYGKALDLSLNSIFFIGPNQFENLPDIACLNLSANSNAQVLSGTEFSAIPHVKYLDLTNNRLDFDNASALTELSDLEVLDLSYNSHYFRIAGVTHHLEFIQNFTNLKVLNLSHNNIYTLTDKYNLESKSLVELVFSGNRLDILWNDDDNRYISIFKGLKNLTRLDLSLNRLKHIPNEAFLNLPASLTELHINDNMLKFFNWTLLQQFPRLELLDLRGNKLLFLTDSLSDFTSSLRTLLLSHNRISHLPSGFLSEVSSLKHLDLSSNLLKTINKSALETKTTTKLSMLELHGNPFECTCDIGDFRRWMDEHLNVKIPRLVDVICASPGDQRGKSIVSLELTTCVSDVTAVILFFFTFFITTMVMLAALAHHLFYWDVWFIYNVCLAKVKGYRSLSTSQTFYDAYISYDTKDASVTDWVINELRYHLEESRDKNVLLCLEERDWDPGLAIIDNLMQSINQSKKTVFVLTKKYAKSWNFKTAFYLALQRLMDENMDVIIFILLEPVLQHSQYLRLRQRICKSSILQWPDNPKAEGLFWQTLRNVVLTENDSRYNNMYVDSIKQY
How it was run: (§1)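 Agonists used: gardiquimod 7.5 μM (TLR7), R848 15.9 μM (TLR8), ODN2006 5 nM (TLR9), added after 30 min room-temperature compound pre-treatment (0.05 nM–50 μM) of receptor-overexpressing HEK-Blue cells. SEAP reporter (NF-κB/AP-1 driven) read after 22 h at 37 °C; inhibition scaled between agonist+DMSO and reference-inhibitor wells.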

[2] = molecular target: T2, human TLR9 (Homo sapiens, UniProt Q9NR96); experiment: TLR9 inhibition reporter assay (HEK-Blue SEAP); format: cell-based; conditions: HEK-Blue cells overexpressing human TLR9, ODN2006 5 nM, 22 hour incubation
T2 construct: host or cells: HEK-Blue cells
T2 sequence (Q9NR96 26-1032): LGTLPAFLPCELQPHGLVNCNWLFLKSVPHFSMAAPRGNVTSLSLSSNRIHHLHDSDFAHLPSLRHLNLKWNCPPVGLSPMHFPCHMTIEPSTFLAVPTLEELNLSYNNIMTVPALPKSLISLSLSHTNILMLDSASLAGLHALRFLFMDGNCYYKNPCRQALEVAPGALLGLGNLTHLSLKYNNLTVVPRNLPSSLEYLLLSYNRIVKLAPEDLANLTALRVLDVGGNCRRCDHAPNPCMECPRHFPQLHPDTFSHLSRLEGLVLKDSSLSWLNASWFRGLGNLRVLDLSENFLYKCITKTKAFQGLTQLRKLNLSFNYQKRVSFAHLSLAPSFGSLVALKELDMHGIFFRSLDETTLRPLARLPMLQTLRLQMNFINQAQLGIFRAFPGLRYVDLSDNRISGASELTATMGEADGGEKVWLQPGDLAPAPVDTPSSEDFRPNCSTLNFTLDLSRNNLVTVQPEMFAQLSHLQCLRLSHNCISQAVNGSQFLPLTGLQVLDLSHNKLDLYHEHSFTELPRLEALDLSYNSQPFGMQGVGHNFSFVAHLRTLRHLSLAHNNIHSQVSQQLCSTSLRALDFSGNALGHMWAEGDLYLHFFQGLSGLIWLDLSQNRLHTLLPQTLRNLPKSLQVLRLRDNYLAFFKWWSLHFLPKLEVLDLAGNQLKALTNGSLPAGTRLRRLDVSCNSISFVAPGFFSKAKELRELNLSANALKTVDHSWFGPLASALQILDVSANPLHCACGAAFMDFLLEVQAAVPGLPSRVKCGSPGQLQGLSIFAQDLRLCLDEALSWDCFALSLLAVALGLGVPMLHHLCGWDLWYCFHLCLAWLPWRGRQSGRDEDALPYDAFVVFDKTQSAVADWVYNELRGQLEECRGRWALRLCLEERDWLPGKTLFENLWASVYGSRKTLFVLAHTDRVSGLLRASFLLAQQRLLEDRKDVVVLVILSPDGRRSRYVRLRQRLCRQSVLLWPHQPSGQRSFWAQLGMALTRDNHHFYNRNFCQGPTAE
How it was run: as §1

IC50 [1] [nM]	IC50 [2] [nM]	SMILES
52	9620	CCC(CC)N1CCC[C@@H](n2c(=O)[nH]c3cc(-c4cc(OC)c5ncnn5c4)c(C)cc32)C1 [Example 67, (R)-5-(8-methoxy-[1,2,4]triazolo[1,5-a]pyridin-6-yl)-6-methyl-1-(1-(pentan-3-yl)piperidin-3-yl)-1,3-dihydro-2H-benzo[d]imidazol-2-one]
5.2	4120	COc1cc(-c2cc3[nH]c(=O)n([C@H]4CC[C@@H](NC5CCC5)CC4)c3cc2C)cn2ncnc12 [Example 58, 1-((1s,4s)-4-(cyclobutylamino)cyclohexyl)-5-(8-methoxy-[1,2,4]triazolo[1,5-a]pyridin-6-yl)-6-methyl-1,3-dihydro-2H-benzo[d]imidazol-2-one]
4.86	10900	COc1cc(-c2cc3[nH]c(=O)n([C@H]4CC[C@@H](NC(C)C)CC4)c3cc2C)cn2ncnc12 [Example 50, 1-((1s,4s)-4-(isopropylamino)cyclohexyl)-5-(8-methoxy-[1,2,4]triazolo[1,5-a]pyridin-6-yl)-6-methyl-1,3-dihydro-2H-benzo[d]imidazol-2-one]
10.9	21100	Cc1cc2c(cc1-c1cc(C)c3ncnn3c1)[nH]c(=O)n2[C@H]1CC[C@@H](NCc2ncn(C)n2)CC1 [Example 33, 6-methyl-1-((1s,4s)-4-(((1-methyl-1H-1,2,4-triazol-3-yl)methyl)amino)cyclohexyl)-5-(8-methyl-[1,2,4]triazolo[1,5-a]pyridin-6-yl)-1,3-dihydro-2H-benzo[d]imidazol-2-one]
121	27100	COc1cc(-c2cc3[nH]c(=O)n([C@@H]4CCCN(CCC(F)(F)F)C4)c3cc2C)cn2ncnc12 [Example 68, (R)-5-(8-methoxy-[1,2,4]triazolo[1,5-a]pyridin-6-yl)-6-methyl-1-(1-(3,3,3-trifluoropropyl)piperidin-3-yl)-1,3-dihydro-2H-benzo[d]imidazol-2-one]
24	4230	CCCN1CCC[C@@H](n2c(=O)[nH]c3cc(-c4cc(OC)c5ncnn5c4)c(C)cc32)C1 [Example 54, (R)-5-(8-methoxy-[1,2,4]triazolo[1,5-a]pyridin-6-yl)-6-methyl-1-(1-propylpiperidin-3-yl)-1,3-dihydro-2H-benzo[d]imidazol-2-one]
110	19300	COc1cc(-c2cc3[nH]c(=O)n([C@@H]4CCCN(C5CCC5)C4)c3cc2C)cn2ncnc12 [Example 69, (R)-1-(1-cyclobutylpiperidin-3-yl)-5-(8-methoxy-[1,2,4]triazolo[1,5-a]pyridin-6-yl)-6-methyl-1,3-dihydro-2H-benzo[d]imidazol-2-one]
25.7	2960	CCN1CCC[C@@H](n2c(=O)[nH]c3cc(-c4cc(OC)c5ncnn5c4)c(C)cc32)C1 [Example 52, (R)-1-(1-ethylpiperidin-3-yl)-5-(8-methoxy-[1,2,4]triazolo[1,5-a]pyridin-6-yl)-6-methyl-1,3-dihydro-2H-benzo[d]imidazol-2-one]
220	> 50000	Cc1cc2c(cc1-c1cc(C)c3ncnn3c1)[nH]c(=O)n2[C@@H]1CCCN(Cc2ncn(C)n2)C1 [Example 35, (R)-6-methyl-1-(1-((1-methyl-1H-1,2,4-triazol-3-yl)methyl)piperidin-3-yl)-5-(8-methyl-[1,2,4]triazolo[1,5-a]pyridin-6-yl)-1,3-dihydro-2H-benzo[d]imidazol-2-one]
2.35	5510	COc1cc(-c2cc3[nH]c(=O)n([C@H]4CC[C@@H](NCC(C)C)CC4)c3cc2C)cn2ncnc12 [Example 61, 1-((1s,4s)-4-(isobutylamino)cyclohexyl)-5-(8-methoxy-[1,2,4]triazolo[1,5-a]pyridin-6-yl)-6-methyl-1,3-dihydro-2H-benzo[d]imidazol-2-one]
0.61	2340	Cc1cc2c(cc1-c1cc(C)c3ncnn3c1)[nH]c(=O)n2[C@H]1CC[C@@H](NCC(C)(C)C)CC1 [Example 32, 6-methyl-5-(8-methyl-[1,2,4]triazolo[1,5-a]pyridin-6-yl)-1-((1s,4s)-4-(neopentylamino)cyclohexyl)-1,3-dihydro-2H-benzo[d]imidazol-2-one]
27.1	8120	Cc1cc2c(cc1-c1cc(C)c3ncnn3c1)[nH]c(=O)n2[C@@H]1CCCN(CC2CCOCC2)C1 [Example 41, (R)-6-methyl-5-(8-methyl-[1,2,4]triazolo[1,5-a]pyridin-6-yl)-1-(1-((tetrahydro-2H-pyran-4-yl)methyl)piperidin-3-yl)-1,3-dihydro-2H-benzo[d]imidazol-2-one]
35.9	3750	COc1cc(-c2cc3[nH]c(=O)n([C@@H]4CCCN(C(C)C)C4)c3cc2C)cn2ncnc12 [Example 53, (R)-1-(1-isopropylpiperidin-3-yl)-5-(8-methoxy-[1,2,4]triazolo[1,5-a]pyridin-6-yl)-6-methyl-1,3-dihydro-2H-benzo[d]imidazol-2-one]
73.6	8070	CCC(CC)CN1CCC[C@@H](n2c(=O)[nH]c3cc(-c4cc(OC)c5ncnn5c4)c(C)cc32)C1 [Example 73, (R)-1-(1-(2-ethylbutyl)piperidin-3-yl)-5-(8-methoxy-[1,2,4]triazolo[1,5-a]pyridin-6-yl)-6-methyl-1,3-dihydro-2H-benzo[d]imidazol-2-one]
105	12600	Cc1cc2c(cc1-c1cc(C)c3ncnn3c1)[nH]c(=O)n2[C@H]1CCCN(CC(=O)N(C)C)C1 [Example 93, (S)—N,N-dimethyl-2-(3-(6-methyl-5-(8-methyl-[1,2,4]triazolo[1,5-a]pyridin-6-yl)-2-oxo-2,3-dihydro-1H-benzo[d]imidazol-1-yl)piperidin-1-yl)acetamide]

SMILES	IC50 [1] [nM]	IC50 [2] [nM]
COc1cc(-c2ccc3c(c2)[nH]c(=O)n3C2CCN(CC3CCOCC3)CC2)cn2ncnc12 [Example 78, 5-(8-methoxy-[1,2,4]triazolo[1,5-a]pyridin-6-yl)-1-(1-((tetrahydro-2H-pyran-4-yl)methyl)piperidin-4-yl)-1,3-dihydro-2H-benzo[d]imidazol-2-one]	1380	2850
COc1cc(-c2ccc3c(c2)[nH]c(=O)n3C2CCN(C3CCOC3)CC2)cn2ncnc12 (stereo not drawn) [Example 81, 5-(8-methoxy-[1,2,4]triazolo[1,5-a]pyridin-6-yl)-1-(1-(tetrahydrofuran-3-yl)piperidin-4-yl)-1,3-dihydro-2H-benzo[d]imidazol-2-one]	> 3130	3880
COc1cc(-c2ccc3c(c2)[nH]c(=O)n3C2CCN(CC3CCOC3)CC2)cn2ncnc12 (stereo not drawn) [Example 82, 5-(8-methoxy-[1,2,4]triazolo[1,5-a]pyridin-6-yl)-1-(1-((tetrahydrofuran-3-yl)methyl)piperidin-4-yl)-1,3-dihydro-2H-benzo[d]imidazol-2-one]	2600	4770
